How the values were obtained:
[1] = molecular target: Angiotensin II receptor (Rattus norvegicus) (UniProt P29089+P25095+P35351); test: In vivo inhibitory percentage of pressor response induced by exogenous submaximal dose of angiotensin-II (3 ug/kg) administered iv to pithed rats; assay type: functional, organism-based
[2] = molecular target: T1, Angiotensin II receptor (AT-1) type-1 (Rattus norvegicus, UniProt P29089+P25095); test: Inhibitory concentration was evaluated by measuring displacement of [3H]AII from rat liver Angiotensin II receptor, type 1
T1 sequence (P29089 whole entry): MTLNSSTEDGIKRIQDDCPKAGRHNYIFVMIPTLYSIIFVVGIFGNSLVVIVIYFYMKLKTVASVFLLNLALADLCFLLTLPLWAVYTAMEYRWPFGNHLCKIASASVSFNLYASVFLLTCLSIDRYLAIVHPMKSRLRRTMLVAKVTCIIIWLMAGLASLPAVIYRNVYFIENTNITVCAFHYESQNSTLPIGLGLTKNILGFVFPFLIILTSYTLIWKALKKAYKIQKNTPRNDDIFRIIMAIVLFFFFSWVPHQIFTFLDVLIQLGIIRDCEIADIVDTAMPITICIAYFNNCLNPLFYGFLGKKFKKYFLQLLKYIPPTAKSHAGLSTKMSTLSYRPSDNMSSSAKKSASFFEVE
T1 sequence (P25095 whole entry): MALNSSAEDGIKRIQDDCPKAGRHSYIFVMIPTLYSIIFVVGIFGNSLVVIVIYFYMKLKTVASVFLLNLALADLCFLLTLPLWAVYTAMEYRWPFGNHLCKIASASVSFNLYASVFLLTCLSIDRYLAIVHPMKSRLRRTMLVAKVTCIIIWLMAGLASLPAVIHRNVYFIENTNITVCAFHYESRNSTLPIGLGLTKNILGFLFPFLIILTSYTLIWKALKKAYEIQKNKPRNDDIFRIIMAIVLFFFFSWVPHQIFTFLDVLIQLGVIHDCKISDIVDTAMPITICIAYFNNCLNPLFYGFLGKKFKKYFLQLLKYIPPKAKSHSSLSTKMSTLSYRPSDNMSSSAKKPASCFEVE

[3] = system: Rattus norvegicus; test: (§1) In vivo inhibitory percentage of pressor response induced by exogenous submaximal dose of angiotensin -II […] administered iv to pithed rats; assay type: functional
[4] = species on record: Oryctolagus cuniculus; test: Antagonism against A-2 induced contraction of aortic rings from rabbit.; assay type: functional; settings: Aorta, read-out: pA2 (converted)
[5] = system: Rattus norvegicus; test: as §1; assay type: functional; remark: listed apart in the source

Sequence of Angiotensin II receptor (Rattus norvegicus) (P35351 whole entry, looked up, one chain of several): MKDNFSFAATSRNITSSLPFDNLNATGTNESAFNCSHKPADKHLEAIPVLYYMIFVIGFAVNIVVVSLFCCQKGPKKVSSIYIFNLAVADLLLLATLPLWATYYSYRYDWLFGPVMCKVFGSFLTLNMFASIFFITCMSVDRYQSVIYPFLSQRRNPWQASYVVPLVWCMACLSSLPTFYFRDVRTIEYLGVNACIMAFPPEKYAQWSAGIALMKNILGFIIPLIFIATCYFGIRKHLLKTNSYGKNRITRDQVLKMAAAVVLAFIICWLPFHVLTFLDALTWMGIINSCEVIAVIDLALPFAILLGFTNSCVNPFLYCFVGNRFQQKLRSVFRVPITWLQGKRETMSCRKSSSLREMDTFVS

Row | Compound | inhibition [1] [%] | IC50 [2] [nM] | further results
1 | CCc1nc2c(C)cc(C)nc2n1Cc1ccc(C(c2ccccc2)C(C(=O)O)C(F)(F)F)cc1 (configuration not stated) | 32.3 | – | –
2 | CCc1nc2c(C)cc(C)nc2n1Cc1ccc([C@H](c2ccccc2)[C@@H](CC)C(=O)O)cc1 | – | 450 | Inhibition [3]: 44.9%
3 | CCc1nc2c(C)cc(C)nc2n1Cc1ccc(/C(=C\C(=O)O)c2ccccc2)cc1 (stereo in doubt; 12B) [listing 1 of 2 here] | 22.9 | – | –
4 | CCc1nc2c(C)cc(C)nc2n1Cc1ccc(C(CC(=O)O)c2ccccc2F)cc1 (configuration not stated) | 68.7 | 130 | –
5 | CCc1nc2c(C)cc(C)nc2n1Cc1ccc(/C(=C\c2nn[nH]n2)c2ccccc2)cc1 (stereo in doubt; 22b) [listing 1 of 2 here] | < 10 | – | –
6 | CCc1nc2c(C)cc(C)nc2n1Cc1ccc(C(c2ccccc2C)C(C(=O)O)C(=O)O)cc1 (configuration not stated) | 62 | 210 | –
7 | CCc1nc2c(C)cc(C)nc2n1Cc1ccc([C@H](c2ccccc2)[C@H](C)C(=O)O)cc1 (stereo in doubt; (+36)g) | – | 71 | Inhibition [3]: 80.9%
8 | CCc1nc2c(C)cc(C)nc2n1Cc1ccc(/C(=C(/Br)c2nn[nH]n2)c2ccccc2)cc1 (stereo in doubt; 22d) [listing 1 of 2 here] | 22.8 | – | –
9 | CCc1nc2c(C)cc(C)nc2n1Cc1ccc(C(=C(C(=O)O)C(=O)O)c2ccccc2)cc1 | 69.2 | 320 | –
10 | CCc1nc2c(C)cc(C)nc2n1Cc1ccc([C@H](c2ccccc2)[C@H](C)C(=O)O)o1 | – | 4800 | Inhibition [3]: <10%
11 | CCc1nc2c(C)cc(C)nc2n1Cc1ccc(C(c2ccc(C)cc2)C(C(=O)O)C(=O)O)cc1 (configuration not stated) | 17.1 | 1100 | –
12 | CCc1nc2c(C)cc(C)nc2n1Cc1ccc([C@H](c2ccccc2)[C@@H](C)C(=O)O)o1 | – | 5600 | Inhibition [3]: <10%
13 | CCc1nc2c(C)cc(C)nc2n1Cc1ccc(C(c2ccccc2)C(C)C(=O)O)cc1 (configuration not stated) | 73.7 | 71 | –
14 | CCc1nc2c(C)cc(C)nc2n1Cc1ccc(C(c2ccccc2)C(C#N)C(=O)O)cc1 (configuration not stated) | 68.7 | 160 | –
15 | CCc1nc2c(C)cc(C)nc2n1Cc1ccc([C@H](c2ccccc2)[C@@H](C)C(=O)O)cc1 (stereo in doubt; 37g) | – | 250 | Kb [4]: 49 nM; Inhibition [3]: 28.2%
16 | CCc1nc2c(C)cc(C)nc2n1Cc1ccc(C(C(C)C)C(C)C(=O)O)cc1 (configuration not stated) | 30.4 | 600 | –
17 | CCc1nc2c(C)cc(C)nc2n1Cc1ccc(C(c2ccccc2)C(C)(C)C(=O)O)cc1 (configuration not stated) | 50.7 | 240 | –
18 | CCc1nc2c(C)cc(C)nc2n1Cc1ccc(C(CC(=O)O)c2ccc(OC)cc2)cc1 (configuration not stated) | – | 3700 | –
19 | CCC[C@@H](C(=O)O)[C@@H](c1ccccc1)c1ccc(Cn2c(CC)nc3c(C)cc(C)nc32)cc1 | – | 590 | Inhibition [3]: 27.8%
20 | CCc1nc2c(C)cc(C)nc2n1Cc1ccc(C(c2ccccc2)C(C(=O)O)C(=O)O)cc1 (configuration not stated) | 79.9 | 120 | –
21 | CCc1nc2c(C)cc(C)nc2n1Cc1ccc(/C(=C\C(=O)O)c2ccccc2)cc1 (stereo in doubt; 12A) [listing 1 of 2 here] | 30.4 | – | –
22 | CCc1nc2c(C)cc(C)nc2n1Cc1ccc(C(CC(=O)NS(C)(=O)=O)c2ccccc2)cc1 (configuration not stated) | 72.7 | 94 | –
23 | CCc1nc2c(C)cc(C)nc2n1Cc1ccc(/C(=C\C(=O)O)c2ccccc2)cc1 (stereo in doubt; 12A) [listing 2 of 2 here] | – | 120 | –
24 | CCc1nc2c(C)cc(C)nc2n1Cc1ccc([C@H](c2ccccc2)[C@@H](C)C(=O)O)cc1 (stereo in doubt; (+)37g) | – | 440 | Inhibition [3]: 19.7%
25 | CCc1nc2c(C)cc(C)nc2n1Cc1ccc(C(CC(=O)NS(=O)(=O)c2ccccc2)c2ccccc2)cc1 (configuration not stated) | 48.2 | 360 | –

Row | Compound | inhibition [1] [%] | IC50 [2] [nM] | further results
26 | CCc1nc2c(C)cc(C)nc2n1Cc1ccc(C(CC)C(C)C(=O)O)cc1 (configuration not stated) | 45.7 | 330 | –
27 | CCc1nc2c(C)cc(C)nc2n1Cc1ccc(C(c2ccccc2)C(Br)C(=O)O)cc1 (configuration not stated) | 47.1 | 170 | –
28 | CCc1nc2c(C)cc(C)nc2n1Cc1ccc(C(CC(=O)O)c2ccccc2)cc1 (configuration not stated) | 68.5 | 110 | –
29 | CCc1nc2c(C)cc(C)nc2n1Cc1ccc(C(Cc2nnn[nH]2)c2ccccc2)cc1 (configuration not stated) | 55.4 | 120 | –
30 | CCc1nc2c(C)cc(C)nc2n1Cc1ccc([C@H](c2ccccc2)[C@H](C)C(=O)NS(C)(=O)=O)cc1 | – | 58 | Inhibition [5]: 55.9%; Inhibition [3]: 71.3%
31 | CCc1nc2c(C)cc(C)nc2n1Cc1ccc(C(CCNS(=O)(=O)C(F)(F)F)c2ccccc2)cc1 (configuration not stated) | – | > 10000 | –
32 | CCc1nc2c(C)cc(C)nc2n1Cc1ccc(/C(=C\C(=O)O)c2ccccc2)cc1 (stereo in doubt; 12B) [listing 2 of 2 here] | – | 170 | –
33 | CCc1nc2c(C)cc(C)nc2n1Cc1ccc(/C(=C(/Br)c2nn[nH]n2)c2ccccc2)cc1 (stereo in doubt; 22c) [listing 1 of 2 here] | 39.9 | – | –
34 | CCc1nc2c(C)cc(C)nc2n1Cc1ccc(C(CC(=O)O)c2ccc(F)cc2F)cc1 (configuration not stated) | 40.4 | 250 | –
35 | CCc1nc2c(C)cc(C)nc2n1Cc1ccc(C(CC(=O)O)c2ccc(-c3ccncc3)cc2)cc1 (configuration not stated) | – | 5300 | –
36 | CCc1nc2c(C)cc(C)nc2n1Cc1ccc(C(CC(=O)O)c2ccccc2Cl)cc1 (configuration not stated) | 69.1 | 200 | –
37 | CCC[C@H](C(=O)O)[C@@H](c1ccccc1)c1ccc(Cn2c(CC)nc3c(C)cc(C)nc32)cc1 | – | 83 | Inhibition [5]: 64%; Inhibition [3]: 73.8%
38 | CCc1nc2c(C)cc(C)nc2n1Cc1ccc(/C(=C(/Br)c2nn[nH]n2)c2ccccc2)cc1 (stereo in doubt; 22d) [listing 2 of 2 here] | – | 290 | –
39 | CCc1nc2c(C)cc(C)nc2n1Cc1ccc(/C(=C\c2nn[nH]n2)c2ccccc2)cc1 (stereo in doubt; 22b) [listing 2 of 2 here] | – | 130 | –
40 | CCc1nc2c(C)cc(C)nc2n1Cc1ccc(/C(=C\c2nn[nH]n2)c2ccccc2)cc1 (stereo in doubt; 22a) [listing 1 of 2 here] | – | 92 | –
41 | CCc1nc2c(C)cc(C)nc2n1Cc1ccc(C(c2ccccc2)C(Cc2ccccc2)C(=O)O)cc1 (configuration not stated) | 31.5 | 200 | –
42 | CCc1nc2c(C)cc(C)nc2n1Cc1ccc(C(c2cccc(C)c2)C(C(=O)O)C(=O)O)cc1 (configuration not stated) | 61.7 | 450 | –
43 | CCc1nc2c(C)cc(C)nc2n1Cc1ccc(/C(=C(/Br)c2nn[nH]n2)c2ccccc2)cc1 (stereo in doubt; 22c) [listing 2 of 2 here] | – | 44 | –
44 | CCc1nc2c(C)cc(C)nc2n1Cc1ccc(C(C)C(C)C(=O)O)cc1 (configuration not stated) | 46 | – | –
45 | CCc1nc2c(C)cc(C)nc2n1Cc1ccc([C@H](c2ccccc2)[C@H](C)C(=O)O)cc1 (stereo in doubt; (-36)g) | – | 76 | Inhibition [3]: 80.3%
46 | CCCCc1nc(Cl)c(CO)n1Cc1ccc(-c2ccccc2-c2nnn[nH]2)cc1 [LOSARTAN] | – | – | Inhibition [5]: 62.5%; Kb [4]: 2.95 nM; Inhibition [3]: 93.5%
47 | CCc1nc2c(C)cc(C)nc2n1Cc1ccc(C(c2ccccc2)C(CC)C(=O)O)cc1 (configuration not stated) | 76.2 | 78 | –
48 | CCc1nc2c(C)cc(C)nc2n1Cc1ccc(/C(=C\c2nn[nH]n2)c2ccccc2)cc1 (stereo in doubt; 22a) [listing 2 of 2 here] | 41 | – | –
49 | CCc1nc2c(C)cc(C)nc2n1Cc1ccc(C(Cc2ccccc2)C(C(=O)O)C(=O)O)cc1 (configuration not stated) | < 10 | > 10000 | –
50 | CCc1nc2c(C)cc(C)nc2n1Cc1ccc([C@H](c2ccccc2)[C@@H](C)C(=O)O)cc1 (stereo in doubt; (-)37g) | – | 180 | Inhibition [3]: 22.1%

— ChEMBL document CHEMBL1129327, “Diphenylpropionic acids as new AT1 selective angiotensin II antagonists” (J Med Chem, 1996)
